Key:
[1] = Cytotoxicity against human SH-SY5Y cells assessed as cell viability at 30 uM after 24 hrs by MTT assay relative to control; format: cell-based; settings: read-out: Activity
[2] = molecular target: Protein kinase C alpha type (Homo sapiens) (UniProt P17252); test: Inhibition of PKCalpha (unknown origin) at 0.5 uM relative to control
[3] = molecular target: Insulin-like growth factor 1 receptor (Homo sapiens) (UniProt P08069); test: Inhibition of IGF-1R (unknown origin) at 0.5 uM relative to control
[4] = molecular target: RAC-beta serine/threonine-protein kinase (Homo sapiens) (UniProt P31751); test: Inhibition of PKBbeta (unknown origin) at 0.5 uM relative to control
Chain of RAC-beta serine/threonine-protein kinase (Homo sapiens) (P31751 whole entry): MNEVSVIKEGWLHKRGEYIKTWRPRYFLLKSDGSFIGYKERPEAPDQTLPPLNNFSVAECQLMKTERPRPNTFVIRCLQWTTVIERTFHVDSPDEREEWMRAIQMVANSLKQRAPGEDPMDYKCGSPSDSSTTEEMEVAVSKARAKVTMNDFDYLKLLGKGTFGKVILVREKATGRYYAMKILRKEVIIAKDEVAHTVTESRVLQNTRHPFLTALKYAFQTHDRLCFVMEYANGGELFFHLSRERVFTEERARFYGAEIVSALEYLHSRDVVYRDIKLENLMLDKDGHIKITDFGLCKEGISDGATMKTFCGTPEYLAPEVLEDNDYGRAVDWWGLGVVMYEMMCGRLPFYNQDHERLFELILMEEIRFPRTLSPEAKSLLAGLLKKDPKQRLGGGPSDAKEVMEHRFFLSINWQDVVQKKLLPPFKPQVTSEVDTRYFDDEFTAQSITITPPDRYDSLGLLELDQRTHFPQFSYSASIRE

[5] = molecular target: AMP-activated protein kinase, AMPK (Homo sapiens) (UniProt P54646+O43741+P54619+Q9UGJ0+Q9Y478+Q13131+Q9UGI9); test: Inhibition of AMPK (unknown origin) at 0.5 uM relative to control; format: protein-complex assay
[6] = molecular target: Glycogen synthase kinase-3 beta (Homo sapiens) (UniProt P49841); test: Inhibition of GSK3beta (unknown origin) at 0.5 uM relative to control
Chain of Glycogen synthase kinase-3 beta (Homo sapiens) (P49841 whole entry, looked up): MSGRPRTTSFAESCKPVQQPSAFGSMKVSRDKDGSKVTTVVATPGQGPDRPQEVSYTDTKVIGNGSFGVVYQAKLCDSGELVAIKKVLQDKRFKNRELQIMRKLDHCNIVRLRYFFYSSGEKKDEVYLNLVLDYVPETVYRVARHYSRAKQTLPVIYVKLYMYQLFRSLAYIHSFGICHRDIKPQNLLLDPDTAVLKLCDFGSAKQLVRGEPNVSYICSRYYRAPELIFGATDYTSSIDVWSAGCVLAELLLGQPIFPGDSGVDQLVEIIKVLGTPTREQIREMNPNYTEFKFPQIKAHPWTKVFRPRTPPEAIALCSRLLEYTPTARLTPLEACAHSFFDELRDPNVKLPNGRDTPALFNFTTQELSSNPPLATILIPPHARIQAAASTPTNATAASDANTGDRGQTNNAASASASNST

[7] = molecular target: RAC-alpha serine/threonine-protein kinase (Homo sapiens) (UniProt P31749); test: Inhibition of PKBalpha (unknown origin) at 0.5 uM relative to control
Chain of RAC-alpha serine/threonine-protein kinase (Homo sapiens) (P31749 whole entry): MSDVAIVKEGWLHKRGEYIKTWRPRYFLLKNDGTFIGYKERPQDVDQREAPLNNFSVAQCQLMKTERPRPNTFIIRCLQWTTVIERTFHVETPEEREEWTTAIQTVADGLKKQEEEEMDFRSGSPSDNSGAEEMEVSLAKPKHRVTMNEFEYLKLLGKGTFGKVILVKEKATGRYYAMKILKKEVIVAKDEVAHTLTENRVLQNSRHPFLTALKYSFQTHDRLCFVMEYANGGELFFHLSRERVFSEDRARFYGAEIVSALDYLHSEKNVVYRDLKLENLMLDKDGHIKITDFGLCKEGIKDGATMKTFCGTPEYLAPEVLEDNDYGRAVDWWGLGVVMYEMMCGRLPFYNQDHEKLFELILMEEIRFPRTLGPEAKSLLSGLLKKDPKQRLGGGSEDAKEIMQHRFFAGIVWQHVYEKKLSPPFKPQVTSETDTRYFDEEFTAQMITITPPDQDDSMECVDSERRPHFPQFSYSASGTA

[8] = molecular target: Vascular endothelial growth factor receptor 1 (Homo sapiens) (UniProt P17948); test: Inhibition of VEGFR1 (unknown origin) at 0.5 uM relative to control
[9] = molecular target: T1, Inhibitor of nuclear factor kappa-B kinase subunit beta (Homo sapiens) (UniProt O14920); test: Inhibition of IKKbeta (unknown origin) at 0.5 uM relative to control
T1 sequence (whole entry): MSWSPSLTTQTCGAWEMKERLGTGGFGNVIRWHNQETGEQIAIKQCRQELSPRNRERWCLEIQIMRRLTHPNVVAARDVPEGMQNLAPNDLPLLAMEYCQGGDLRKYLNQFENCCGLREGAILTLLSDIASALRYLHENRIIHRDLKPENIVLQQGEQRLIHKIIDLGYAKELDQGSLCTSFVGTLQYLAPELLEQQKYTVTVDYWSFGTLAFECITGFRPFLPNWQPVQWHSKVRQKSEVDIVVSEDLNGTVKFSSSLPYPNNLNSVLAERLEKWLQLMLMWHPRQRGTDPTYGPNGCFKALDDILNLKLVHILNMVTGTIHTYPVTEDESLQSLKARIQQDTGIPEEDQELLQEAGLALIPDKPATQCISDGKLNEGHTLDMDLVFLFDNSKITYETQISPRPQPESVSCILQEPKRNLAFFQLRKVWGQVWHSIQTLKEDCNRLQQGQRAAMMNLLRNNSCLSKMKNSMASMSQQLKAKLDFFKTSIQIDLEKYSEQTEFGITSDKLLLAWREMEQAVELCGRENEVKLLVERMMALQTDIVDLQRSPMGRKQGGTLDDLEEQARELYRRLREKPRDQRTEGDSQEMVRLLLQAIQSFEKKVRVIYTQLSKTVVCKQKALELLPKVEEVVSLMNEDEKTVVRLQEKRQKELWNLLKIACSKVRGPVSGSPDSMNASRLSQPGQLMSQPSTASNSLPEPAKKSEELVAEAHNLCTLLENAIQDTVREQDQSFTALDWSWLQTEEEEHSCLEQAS

[10] = molecular target: Tyrosine-protein kinase ABL1 (Homo sapiens) (UniProt P00519); test: Inhibition of Abl (unknown origin) at 0.5 uM relative to control
Chain of Tyrosine-protein kinase ABL1 (Homo sapiens) (P00519 whole entry): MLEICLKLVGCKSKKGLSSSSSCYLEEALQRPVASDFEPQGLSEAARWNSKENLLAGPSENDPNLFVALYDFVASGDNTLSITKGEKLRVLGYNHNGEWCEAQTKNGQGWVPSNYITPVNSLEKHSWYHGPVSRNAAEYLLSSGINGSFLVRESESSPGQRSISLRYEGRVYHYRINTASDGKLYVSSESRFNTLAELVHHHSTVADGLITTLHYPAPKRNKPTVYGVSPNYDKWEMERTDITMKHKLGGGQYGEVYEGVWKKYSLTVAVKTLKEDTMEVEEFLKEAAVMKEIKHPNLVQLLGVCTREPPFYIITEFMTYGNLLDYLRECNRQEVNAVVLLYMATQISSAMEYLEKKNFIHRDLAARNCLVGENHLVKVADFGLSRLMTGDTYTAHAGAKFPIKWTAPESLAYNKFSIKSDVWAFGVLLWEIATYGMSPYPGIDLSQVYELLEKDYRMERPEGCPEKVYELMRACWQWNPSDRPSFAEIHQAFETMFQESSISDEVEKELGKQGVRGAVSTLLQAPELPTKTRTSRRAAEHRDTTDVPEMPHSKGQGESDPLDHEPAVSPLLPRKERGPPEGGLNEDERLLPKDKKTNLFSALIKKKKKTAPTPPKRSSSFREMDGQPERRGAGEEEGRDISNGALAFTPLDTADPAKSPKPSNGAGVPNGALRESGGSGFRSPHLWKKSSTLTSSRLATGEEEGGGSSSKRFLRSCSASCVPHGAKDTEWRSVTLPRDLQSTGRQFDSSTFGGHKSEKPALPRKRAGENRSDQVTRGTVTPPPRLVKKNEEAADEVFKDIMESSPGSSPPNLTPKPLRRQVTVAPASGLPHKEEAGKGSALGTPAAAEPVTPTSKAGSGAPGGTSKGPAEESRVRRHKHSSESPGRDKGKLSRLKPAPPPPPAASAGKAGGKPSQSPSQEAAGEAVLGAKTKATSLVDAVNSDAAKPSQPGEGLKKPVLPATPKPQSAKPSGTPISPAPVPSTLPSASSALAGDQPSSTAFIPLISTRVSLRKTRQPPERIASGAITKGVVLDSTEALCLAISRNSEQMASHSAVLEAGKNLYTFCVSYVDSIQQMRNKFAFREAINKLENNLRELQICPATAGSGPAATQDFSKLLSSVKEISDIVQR

[11] = molecular target: Cyclin-dependent kinase 2 (Homo sapiens) (UniProt P24941); test: Inhibition of CDK2 (unknown origin) at 0.5 uM relative to control
[12] = molecular target: T2, Aurora kinase A (Homo sapiens) (UniProt O14965); test: Inhibition of Aurora A (unknown origin) at 0.5 uM relative to control
T2 sequence (whole entry): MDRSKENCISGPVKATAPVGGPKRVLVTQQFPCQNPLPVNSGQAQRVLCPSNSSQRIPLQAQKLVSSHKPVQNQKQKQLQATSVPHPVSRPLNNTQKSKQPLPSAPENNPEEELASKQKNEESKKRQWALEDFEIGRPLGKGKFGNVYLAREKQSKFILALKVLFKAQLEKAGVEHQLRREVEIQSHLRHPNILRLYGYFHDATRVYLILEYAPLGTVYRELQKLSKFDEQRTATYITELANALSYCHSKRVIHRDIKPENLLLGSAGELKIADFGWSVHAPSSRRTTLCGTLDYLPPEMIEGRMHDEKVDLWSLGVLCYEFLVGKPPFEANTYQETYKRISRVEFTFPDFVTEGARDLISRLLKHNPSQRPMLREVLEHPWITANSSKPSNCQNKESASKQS

[13] = molecular target: Cyclin-dependent kinase 9 (Homo sapiens) (UniProt P50750); test: Inhibition of CDK9 (unknown origin) at 0.5 uM relative to control
Chain of Cyclin-dependent kinase 9 (Homo sapiens) (P50750 whole entry, canonical isoform): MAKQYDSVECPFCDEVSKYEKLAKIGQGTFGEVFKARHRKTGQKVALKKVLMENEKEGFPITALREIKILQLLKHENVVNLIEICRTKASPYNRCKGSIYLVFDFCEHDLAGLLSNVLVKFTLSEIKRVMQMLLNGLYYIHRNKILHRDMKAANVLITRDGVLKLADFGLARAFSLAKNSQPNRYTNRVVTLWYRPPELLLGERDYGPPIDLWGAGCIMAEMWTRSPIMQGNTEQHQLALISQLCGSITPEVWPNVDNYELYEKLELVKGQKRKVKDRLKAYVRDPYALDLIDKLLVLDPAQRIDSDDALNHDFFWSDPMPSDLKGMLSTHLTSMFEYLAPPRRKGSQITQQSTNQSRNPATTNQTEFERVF

[14] = molecular target: Casein kinase I isoform alpha (Homo sapiens) (UniProt P48729); test: Inhibition of CK1 (unknown origin) at 0.5 uM relative to control
Chain of Casein kinase I isoform alpha (Homo sapiens) (P48729 2-337 limits assumed): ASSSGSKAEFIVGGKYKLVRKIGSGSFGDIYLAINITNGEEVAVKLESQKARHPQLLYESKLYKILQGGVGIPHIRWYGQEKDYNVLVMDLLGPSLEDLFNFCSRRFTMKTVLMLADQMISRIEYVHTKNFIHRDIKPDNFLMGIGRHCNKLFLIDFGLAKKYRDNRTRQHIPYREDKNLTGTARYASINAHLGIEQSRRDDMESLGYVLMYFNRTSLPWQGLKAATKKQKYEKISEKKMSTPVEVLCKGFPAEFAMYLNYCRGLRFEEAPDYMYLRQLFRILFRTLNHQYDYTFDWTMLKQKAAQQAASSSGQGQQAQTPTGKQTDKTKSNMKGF

[15] = molecular target: Insulin receptor (Homo sapiens) (UniProt P06213); test: Inhibition of IR (unknown origin) at 0.5 uM relative to control
[16] = molecular target: Aurora kinase B (Homo sapiens) (UniProt Q96GD4); test: Inhibition of Aurora B (unknown origin) at 0.5 uM relative to control
Chain of Aurora kinase B (Homo sapiens) (Q96GD4 whole entry): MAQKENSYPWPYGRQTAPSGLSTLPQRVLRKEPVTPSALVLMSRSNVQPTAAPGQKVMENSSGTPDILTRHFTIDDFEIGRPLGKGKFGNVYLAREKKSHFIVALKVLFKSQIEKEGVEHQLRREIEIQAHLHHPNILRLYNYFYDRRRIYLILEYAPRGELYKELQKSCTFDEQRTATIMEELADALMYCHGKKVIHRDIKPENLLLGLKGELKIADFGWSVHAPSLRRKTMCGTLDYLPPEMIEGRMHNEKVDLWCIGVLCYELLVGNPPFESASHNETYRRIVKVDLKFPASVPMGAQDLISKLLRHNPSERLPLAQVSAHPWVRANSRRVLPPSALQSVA

SH-SY5Y [17] = test: cells; settings: Homo sapiens, 24 h
SH-SY5Y [18] = test: Neuroprotective activity against glutamate-induced neurotoxicity in human SH-SY5Y cells assessed as cell viability at 10 uM incubated for 30 mins prior to glutamate challenge measured after 24 hrs by MTT assay (reference value: 73.8 +/- 4.5%); format: functional; settings: read-out: Activity
SH-SY5Y [19] = test: Neuroprotective activity against glutamate-induced neurotoxicity in human SH-SY5Y cells assessed as cell viability at 50 uM incubated for 30 mins prior to glutamate challenge measured after 24 hrs by MTT assay (reference value: 73.8 +/- 4.5%); format: functional; settings: read-out: Activity

| SMILES | viability at 24 h, 30 µM [1] | further results |
| --- | --- | --- |
| CN1CCN(C(=O)n2cc(-c3ccnc(N)n3)c3cc(Br)ccc32)CC1 | 91.8% | – |
| Cc1noc(C)c1Cn1cc(-c2ccnc(N)n2)c2ccccc21 | 88.5% | inhibition [2]: 36.9%; inhibition [3]: 0%; inhibition [4]: 0%; inhibition [5]: 9.5%; inhibition [6]: 6.1%; inhibition [7]: 10.9%; inhibition [8]: 13.5%; inhibition [9]: 3%; inhibition [10]: 6.3%; inhibition [11]: 0%; inhibition [12]: 0%; inhibition [13]: 14%; inhibition [14]: 22.7%; inhibition [15]: 17.7%; inhibition [16]: 10.1% |
| Nc1nccc(-c2cn(S(=O)(=O)c3cc(C(F)(F)F)cc(C(F)(F)F)c3)c3ccccc23)n1 | 72.4% | – |
| Nc1nccc(-c2cn(S(=O)(=O)c3cc(C(F)(F)F)cc(C(F)(F)F)c3)c3ccc(Br)cc23)n1 | 76.4% | – |
| Nc1nccc(-c2cn(S(=O)(=O)c3ccc(Cl)cc3Cl)c3ccccc23)n1 | 55.4% | – |
| Nc1nccc(-c2cn(S(=O)(=O)c3ccc4c(c3)OCCO4)c3ccccc23)n1 | 59.4% | – |
| Nc1nccc(-c2cn(S(=O)(=O)c3ccc(F)cc3F)c3ccccc23)n1 | 99.1% | – |
| Cc1cc(C)c(S(=O)(=O)n2cc(-c3ccnc(N)n3)c3ccccc32)c(C)c1 | 40% | – |
| Nc1nccc(-c2cn(S(=O)(=O)c3ccc4ccccc4c3)c3ccccc23)n1 | 61.6% | – |
| COc1ccc(Br)cc1S(=O)(=O)n1cc(-c2ccnc(N)n2)c2ccccc21 | 96.2% | – |
| CC(C)(C)c1ccc(S(=O)(=O)n2cc(-c3ccnc(N)n3)c3ccccc32)cc1 | 86.3% | – |
| Cc1ccsc1C(=O)n1cc(-c2ccnc(N)n2)c2ccccc21 | 82% | – |
| Cc1c(C)c(C)c(S(=O)(=O)n2cc(-c3ccnc(N)n3)c3ccccc32)c(C)c1C | 49% | – |
| Nc1nccc(-c2cn(Cc3ccc(Cl)s3)c3ccccc23)n1 | 115% | – |
| Nc1nccc(-c2cn(S(=O)(=O)c3ccc(C(F)(F)F)cc3[N+](=O)[O-])c3ccc(Br)cc23)n1 | 15.2% | IC50 (SH-SY5Y [17]): 14 µM |
| Nc1nccc(-c2cn(S(=O)(=O)c3ccc([N+](=O)[O-])cc3)c3ccccc23)n1 | 56% | – |
| O=C1NC(c2c[nH]c3ccc(Br)cc23)Nc2ccccc21 (stereo not given) | 41.5% | – |
| Nc1nccc(-c2cn(Cc3ccc(Cl)s3)c3ccc(Br)cc23)n1 | 24% | – |
| COc1ccc(S(=O)(=O)n2cc(-c3ccnc(N)n3)c3cc(Br)ccc32)cc1 | 99% | – |
| COc1ccc(S(=O)(=O)n2cc(-c3ccnc(N)n3)c3ccccc32)cc1 | 58.8% | – |
| Nc1nccc(-c2cn(C(=O)c3ccccc3)c3ccccc23)n1 | 106% | – |
| O=c1[nH]c(-c2c[nH]c3ccc(I)cc23)nc2ccccc12 | 24% | – |
| Nc1nccc(-c2cn(S(=O)(=O)c3ccc([N+](=O)[O-])cc3)c3ccc(Br)cc23)n1 | 59% | – |
| N#Cc1ccc(S(=O)(=O)n2cc(-c3ccnc(N)n3)c3ccccc32)cc1 | 110% | – |
| Nc1nccc(-c2cn(S(=O)(=O)c3ccc(Br)cc3)c3ccccc23)n1 | 91.4% | – |
| CC(C)(C)c1ccc(S(=O)(=O)n2cc(-c3ccnc(N)n3)c3cc(Br)ccc32)cc1 | 109% | – |

| SMILES | viability at 24 h, 30 µM [1] | further results |
| --- | --- | --- |
| Nc1nccc(-c2cn(C(=O)c3ccccc3)c3ccc(Br)cc23)n1 | 65.1% | viability at 10 µM (SH-SY5Y [18]): 93.2%; viability at 50 µM (SH-SY5Y [19]): 94.1%; IC50 (SH-SY5Y [17]): > 100 µM |
| Nc1nccc(-c2cn(S(=O)(=O)c3ccc4c(c3)OCCO4)c3ccc(Br)cc23)n1 | 112% | – |
| Nc1nccc(-c2cn(S(=O)(=O)c3cccc(C(F)(F)F)c3)c3ccccc23)n1 | 76.1% | – |
| Nc1nccc(-c2cn(CN3C(=O)c4ccccc4C3=O)c3ccccc23)n1 | 101% | – |
| Nc1nccc(-c2cn(S(=O)(=O)c3ccc(C(F)(F)F)cc3)c3ccccc23)n1 | 95.6% | – |
| Nc1nccc(-c2cn(S(=O)(=O)c3ccc(C(F)(F)F)cc3)c3ccc(Br)cc23)n1 | 85% | – |
| COc1ccc(S(=O)(=O)n2cc(-c3ccnc(N)n3)c3ccccc32)cc1OC | 127% | – |
| Nc1nccc(-c2cn(S(=O)(=O)c3cccc(C(F)(F)F)c3)c3ccc(Br)cc23)n1 | 38.8% | – |
| Nc1nccc(-c2cn(S(=O)(=O)c3ccc(I)cc3)c3ccccc23)n1 | 57.5% | – |
| COCCn1cc(-c2ccnc(N)n2)c2cc(Br)ccc21 | 75.3% | – |
| Nc1nccc(-c2c[nH]c3ccc(Br)cc23)n1 [MERIDIANIN C] | 92.9% | – |
| Nc1nccc(-c2cn(Cc3c4ccccc4cc4ccccc34)c3ccccc23)n1 | 96% | – |
| O=C1NC(c2c[nH]c3ccccc23)Nc2ccccc21 (stereo not given) | 83.1% | – |
| CCOc1ccccc1C(=O)n1cc(-c2ccnc(N)n2)c2ccccc21 | 46.6% | – |
| Nc1nccc(-c2cn(Cc3c4ccccc4cc4ccccc34)c3ccc(Br)cc23)n1 | 79.8% | – |
| Cc1noc(C)c1Cn1cc(-c2ccnc(N)n2)c2cc(Br)ccc21 | 83.1% | – |
| CN1CCN(C(=O)n2cc(-c3ccnc(N)n3)c3ccccc32)CC1 | 82% | – |
| COc1cccc(C(=O)n2cc(-c3ccnc(N)n3)c3ccccc32)c1 | 94.6% | – |
| Nc1nccc(-c2cn(C(=O)N3CCOCC3)c3ccccc23)n1 | 97.3% | – |
| Nc1nccc(-c2c[nH]c3ccccc23)n1 | 91.4% | inhibition [2]: 8.5%; inhibition [3]: 0%; inhibition [4]: 0%; inhibition [5]: 0%; inhibition [6]: 0%; inhibition [7]: 22.3%; inhibition [8]: 8%; inhibition [9]: 16.6%; inhibition [10]: 7.1%; inhibition [11]: 0%; inhibition [12]: 5.1%; inhibition [13]: 3.8%; inhibition [14]: 0%; inhibition [15]: 9.6%; inhibition [16]: 4.1% |
| N#Cc1ccc(S(=O)(=O)n2cc(-c3ccnc(N)n3)c3cc(Br)ccc32)cc1 | 106% | – |
| Nc1nccc(-c2cn(S(=O)(=O)c3ccc(OC(F)(F)F)cc3)c3ccc(Br)cc23)n1 | 74% | – |
| Cc1cc(C)c(S(=O)(=O)n2cc(-c3ccnc(N)n3)c3cc(Br)ccc32)c(C)c1 | 109% | – |
| CC(=O)Nc1ccc(S(=O)(=O)n2cc(-c3ccnc(N)n3)c3cc(Br)ccc32)cc1 | 71.6% | – |
| Cc1c(C)c(C)c(S(=O)(=O)n2cc(-c3ccnc(N)n3)c3cc(Br)ccc32)c(C)c1C | 107% | – |
